Positions of bridges follow the written chain, without caps; N, C: chain ends. Non-standard residues stand in square brackets, D forms with d. Residues, ends and D or L forms follow the SMILES beside them. *: point of attachment. X1 = CC[C@H](C)CCCCC(=O)*; Dab = NCC[C@H](N)C(=O)O
How the values were obtained:
[1] = Population PK model of colistin in plasma (NONMEM, one-compartment, Weibull absorption); type: in vivo, human
From the text: The time courses of colistin concentrations in ELF and plasma were best described using one-compartment models with a Weibull absorption process. The following structural PK model described by two differential equations was applied:(1) dA1/dt=−WB×A1 (2) WB=KAMAX×1−e^−RA×time^GAM (3) dA2/dt=WB×A1−CL/V×A2 where A1 and A2 represent the amounts of colistin in ELF and plasma, and WB denotes the Weibull absorption function with parameters KAMMA, RA, and GAM. KAMMA determines the function’s maximum value, often representing the maximum rate of absorption or event occurrence. RA, the shape parameter, controls the rate of change over time, influencing the distribution’s slope and how quickly it increases or decreases. GAM adjusts the time variable’s exponent, controlling the rate of growth or decline over time, thereby affecting the distribution’s asymmetry and indicating the curve’s speed in reaching its peak or declining. CL and V are the total clearance and volume of distribution for colistin, respectively. The estimated CL and V in Table 2 were expressed as CL/fm and V/fm, respectively, where fm represents the fraction of CMS metabolized to colistin, a value that cannot be estimated from our study data. No significant covariates influencing the PK parameters were identified. The estimated PK parameters for the final PK models are presented in Table 2, while individual fit plots for colistin in ELF and plasma can be found in Figure 2 and Figure 3, respectively. Diagnostic goodness-of-fit plots for the final PK model of colistin in ELF and plasma are shown in Supplementary Materials Figures S1 and S2, respectively. […] With the observed 10th, 50th, and 90th percentiles mostly within the 95% confidence intervals of the simulated percentiles, the final PK models effectively explained the observed concentrations and had good predictive performance.
A population PK analysis of colistin in ELF and plasma was conducted using NONMEM 7.5.0 (ICON Clinical Research LLC, North Wales, PA, USA). The analysis used first-order conditional estimation with interaction (FOCEI) to estimate both observed fixed and unexplained random effect parameters. The FOCEI allows the inter-individual variability (IIV) in the PK parameters to interact with the residual unexplained variability (RUV) in the observed concentrations. The RUV arises from factors such as within-subject variability, assay error, and potential misspecification of the model. ADVAN1 TRANS2 and ADVAN3 TRANS4 from the NONMEM PK model library were used to construct the single- and two-compartment models, respectively. Except for drug inhalation, all PK processes were assumed to follow first-order kinetics. Various absorption models, including zero-order, first-order, Weibull, and transit absorption models, were investigated to describe the absorption processes of colistin.
The representation of each PK parameter was given by θi = θ × exp(ηi), where θ stands for the typical value of the PK parameter, θi represents an individual PK parameter, and ηi is a random variable associated with IIV. It was assumed that IIV follows a normal distribution with a mean of 0 and a variance of ω^2. For RUV, which was assumed to be normally distributed with a mean of 0 and a variance of σ^2; additive, proportional, and combined additive and proportional error models were investigated.
Models were assessed and chosen based on NONMEM objective function values (OFVs), the precision of parameter estimates (relative standard errors), the shrinkage of IIV, and diagnostic goodness-of-fit plots. In the log-likelihood ratio test, if the decrease in OFV (ΔOFV) is greater than 3.84 for models with one additional degree of freedom or greater than 5.99 for models with two additional degrees of freedom, it is considered statistically significant at p < 0.05, indicating an improvement in the model. […]

[2] = Individual steady-state fAUC of colistin in ELF and plasma by clinical and microbiological outcome; type: in vivo, human; details: for fAUC, median (IQR): steady state over 24 h
Method: We investigated whether the fAUC values of individual patients were associated with clinical or microbiological outcomes (Table 3). Using individual estimates of CL derived from the final PK model, we calculated the steady-state fAUC for each patient when a total of 3.75 MIU (=300 mg CMS = 112.5 mg CBA) was administered at 6 h intervals four times a day, using the formula AUC = DOSE/CL. The unbound fraction of colistin was assumed to be 10% [25] in the ELF based on the study by Gkoufa et al. and 34% in the plasma based on the study by Mohamed et al.. Gkoufa et al. presented concentration–time profiles of colistin predicted through simulations, assuming unbound fractions in the ELF of 0.01, 0.015, 0.05, and 0.099 [25]. From these, we approximated the unbound fraction at 0.1 by rounding 0.099. Meanwhile, Mohamed et al. determined the unbound fraction in plasma using equilibrium dialysis and reported a measured median (range) colistin unbound fraction of 34% (26–41%).
The PK/PD index for colistin is the area under the free colistin concentration-–time curve at steady state over 24 h divided by the pathogen minimum inhibitory concentration (fAUC/MIC). Since we were unable to obtain MIC values for A. baumannii, we evaluated the relationship between the PK and PD of colistin by comparing the fAUC of each patient in accordance with their clinical outcomes and microbiological outcomes. AUC was calculated by dividing the daily dose by patient, which was the individual post hoc Bayesian estimate of the developed PK model. […] The Wilcoxon rank-sum test was used to assess the relationships between fAUC and clinical outcomes, and the Kruskal–Wallis test was used to investigate the association between fAUC and microbiological outcomes. Additionally, leveraging typical PK parameter values from final models of ELF and plasma samples, we simulated concentration-time profiles of colistin for nebulization doses of 25 mg, 50 mg, 75 mg, 100 mg, and 125 mg in patients. Subsequently, we generated concentration–time plots and computed fAUC values.

In the case of `CC[C@H](C)CCCCC(=O)N[C@@H](CCN)C(=O)N[C@H](C(=O)N[C@@H](CCN)C(=O)N[C@H]1CCNC(=O)[C@H]([C@@H](C)O)NC(=O)[C@H](CCN)NC(=O)[C@H](CCN)NC(=O)[C@H](CC(C)C)NC(=O)[C@@H](CC(C)C)NC(=O)[C@H](CCN)NC1=O)[C@@H](C)O` [colistin] (X1-[Dab]T[Dab][Dab][Dab][dL]L[Dab][Dab]T; lactam 4-C), the “CL/fm, bootstrap median (95% CI)” value ([1]; 2000 bootstrap samples) is reported as 26.1 (6.66–67) mL/min, the “KAMAX, bootstrap median (95% CI)” value ([1]; 2000 bootstrap samples) is reported as 1.20 (0.912–1.59) and the “V/fm, bootstrap median (95% CI)” value ([1]; 2000 bootstrap samples) is reported as 67.2 (46.6–93) L. The “KAMAX (maximum rate of absorption), estimate” value ([1]; Weibull absorption) was 1.20, the “CL/fm, estimate” value ([1]; final PK model) was 26.3 mL/min and the “V/fm, estimate” value ([1]; final PK model) was 67.4 L. For the same compound, the “fAUC, median (IQR)” value ([2]; ELF, clinical outcome cured/improved, 16 patients, 3.75 MIU CMS/day at 6 h intervals, AUC = dose/CL, bioavailability 9%, unbound fraction 10%) was 36.7 (18.2–62.9) mg/L·h, the “fAUC, median (IQR)” value ([2]; ELF, clinical outcome failed, 4 patients, 3.75 MIU CMS/day, unbound fraction 10%) was 31.7 (15.4–47.8) mg/L·h and the “fAUC, median (IQR)” value ([2]; ELF, microbiological outcome eradicated, 8 patients, 3.75 MIU CMS/day) was 61.2 (12.5–111) mg/L·h. The “fAUC, median (IQR)” value ([2]; ELF, microbiological outcome indeterminate, 2 patients, 3.75 MIU CMS/day) was 33.9 (30.0–37.9) mg/L·h, the “fAUC, median (IQR)” value ([2]; ELF, microbiological outcome persistent, 10 patients, 3.75 MIU CMS/day) was 28.5 (17.7–50.5) mg/L·h and the “fAUC in ELF relative to plasma” value ([2]; cured/improved group, mean values) was “approximately 27.2 times”. The “fAUC in ELF relative to plasma” value ([2]; cured/improved group, median values) was “approximately 26.2 times”, the “fAUC in ELF relative to plasma” value ([2]; eradicated group, mean values) was 39.8 times and the “fAUC in ELF relative to plasma” value ([2]; eradicated group, median values) was 26.0 times. For the same compound, the “fAUC in ELF relative to plasma” value ([2]; failed group, mean values) was “about 14.0 times”, the “fAUC in ELF relative to plasma” value ([2]; failed group, median values) was 15.9 times and the “fAUC in ELF relative to plasma” value ([2]; indeterminate group, mean values) was 6 times. The “fAUC in ELF relative to plasma” value ([2]; indeterminate group, median values) was 6 times, the “ELF fAUC, cured/improved relative to treatment failure” value ([2]; mean values) was “more than 2.25 times” and the “ELF fAUC, eradicated relative to indeterminate group” value ([2]; mean values) was 3.24 times. The “ELF fAUC, eradicated relative to persistent group” value ([2]; mean values) was 3.48 times, the “ELF fAUC, cured/improved relative to treatment failure” value ([2]; median values) was 1.16 times and the “ELF fAUC, eradicated relative to indeterminate group” value ([2]; median values) was 1.80 times. The “ELF fAUC, eradicated relative to persistent group” value ([2]; median values) was 2.15 times, the “fAUC in ELF relative to plasma” value ([2]; persistent group, mean values) was 18.8 times and the “fAUC in ELF relative to plasma” value ([2]; persistent group, median values) was 18.2 times. For the same compound, the “fAUC, median (IQR)” value ([2]; plasma, clinical outcome cured/improved, 16 patients, 3.75 MIU CMS/day, unbound fraction 34%) was 1.40 (0.752–3.74) mg/L·h, the “fAUC, median (IQR)” value ([2]; plasma, clinical outcome failed, 4 patients, 3.75 MIU CMS/day, unbound fraction 34%) was 2.00 (1.87–2.38) mg/L·h and the “fAUC, median (IQR)” value ([2]; plasma, microbiological outcome eradicated, 8 patients, 3.75 MIU CMS/day) was 2.36 (0.645–4.11) mg/L·h. The “fAUC, median (IQR)” value ([2]; plasma, microbiological outcome indeterminate, 2 patients, 3.75 MIU CMS/day) was 5.96 (5.00–6.91) mg/L·h and the “fAUC, median (IQR)” value ([2]; plasma, microbiological outcome persistent, 10 patients, 3.75 MIU CMS/day) was 1.56 (1.00–2.05) mg/L·h.

Reference: PMC10967270, “Intrapulmonary and Systemic Pharmacokinetics of Colistin Following Nebulization of Low-Dose Colistimethate Sodium in Patients with Ventilator-Associated Pneumonia Caused by Carbapenem-Resistant Acinetobacter baumannii” (Antibiotics, 2024)
